Laboratory results published in US11266755B2, “Development and application of tumor diagnostic radioactive probe targeting folic acid receptor” (Kyungpook National University Industry-Academic Cooperation …, priority 2017, dated 2022).

Tested on: MDA-MB-231/Luc+
Assay: PET imaging in breast cancer bone metastasis model
Format: in vivo
Settings: PET 1 hour after injection into the tail vein, same mouse, FIG. 13B
Method: For the breast cancer metastasis model, MDA-MB-231/Luc+ was used, and after 10 days of direct injection of 1×10^5 cells into the left ventricle, IVIS-assisted luminescence images confirmed that bone metastasis occurred to the femoral bones. After verifying the establishment of bone metastasis model of breast cancer, further experiments were carried out (FIG. 12A).

OC[C@H]1O[C@@H](O)[C@H]([18F])[C@@H](O)[C@@H]1O [FDG]
PET detection of breast cancer bone metastasis: difficult to identify the tumor site clearly due to high background uptake
